Measurements from PubChem BioAssay AID248 (DTP/NCI, 2004).
Several values for one entry are separate records, joined by “and”; a condition that tells them apart may be missing. Equal values may be shown once. Inconclusive results and toxic doses are left out. No stated cut-off is given here; in the data, active means T/C of 150% or more; inactive means T/C below 125%.

Test system: L1210 leukemia ip in BDF1 mice, survival T/C
Assay: NCI In Vivo Anticancer Drug Screen. Data for tumor model L1210 Leukemia (intraperitoneal) in B6D2F1 (BDF1) mice
Settings: endpoint: mean survival time, higher = longer survival
In short: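 Antitumor effect is assessed in tumor-bearing animals. Survival in the compound arm is compared with a vehicle-dosed control arm and expressed as their quotient.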

[1] = dose: 100.0 mg/kg/injection, schedule: Q04DX003 (ip), vehicle: Klucel (hydroxypropylcellulose) (HPC)
[2] = dose: 200.0 mg/kg/injection, schedule: Q04DX003 (ip), vehicle: Klucel (hydroxypropylcellulose) (HPC)
[3] = dose: 100.0 mg/kg/injection, schedule: Q01DX001 (ip), vehicle: saline
[4] = dose: 200.0 mg/kg/injection, schedule: Q01DX001 (ip), vehicle: saline
[5] = dose: 400.0 mg/kg/injection, schedule: Q01DX001 (ip), vehicle: saline
[6] = dose: 100.0 mg/kg/injection, schedule: Q04DX003 (ip), vehicle: saline with Tween-80
[7] = dose: 200.0 mg/kg/injection, schedule: Q04DX003 (ip), vehicle: saline with Tween-80
[8] = dose: 400.0 mg/kg/injection, schedule: Q04DX003 (ip), vehicle: saline with Tween-80
[9] = dose: 50.0 mg/kg/injection, schedule: Q01DX009 (ip), vehicle: Klucel (hydroxypropylcellulose) (HPC)
[10] = dose: 100.0 mg/kg/injection, schedule: Q01DX009 (ip), vehicle: Klucel (hydroxypropylcellulose) (HPC)
[11] = dose: 100.0 mg/kg/injection, schedule: Q01DX009 (ip), vehicle: saline with Tween-80
[12] = dose: 200.0 mg/kg/injection, schedule: Q01DX009 (ip), vehicle: saline with Tween-80
[13] = dose: 400.0 mg/kg/injection, schedule: Q01DX009 (ip), vehicle: saline with Tween-80
[14] = dose: 50.0 mg/kg/injection, schedule: Q01DX001 (ip), vehicle: saline
[15] = dose: 50.0 mg/kg/injection, schedule: Q01DX001 (ip), vehicle: carboxymethylcellulose (CMC)

Measured: T/C

Cc1cc(=O)[nH]c(NCC(=O)O)n1
inactive: dose: 50.0 mg/kg/injection, schedule: Q04DX002 (ip), vehicle: saline 101 % of control | dose: 100.0 mg/kg/injection, schedule: Q04DX002 (ip), vehicle: saline 101 % of control | dose: 200.0 mg/kg/injection, schedule: Q04DX002 (ip), vehicle: saline 101 % of control

C/C(=N\O)c1ccccc1C
inactive: [1] 101 % of control | [2] 106 % of control | dose: 400.0 mg/kg/injection, schedule: Q04DX003 (ip), vehicle: Klucel (hydroxypropylcellulose) (HPC) 93 % of control

CCOC(=O)c1nnc(CC)[nH]c1=O
inactive: dose: 100.0 mg/kg/injection, schedule: Q01DX001 (ip), vehicle: Klucel (hydroxypropylcellulose) (HPC) 106 % of control | dose: 200.0 mg/kg/injection, schedule: Q01DX001 (ip), vehicle: Klucel (hydroxypropylcellulose) (HPC) 111 % of control | dose: 400.0 mg/kg/injection, schedule: Q01DX001 (ip), vehicle: Klucel (hydroxypropylcellulose) (HPC) 90 % of control

CC(C)(CO)N=Cc1ccc(Cl)cc1Cl
inactive: [3] 93 % of control | [4] 102 % of control | [5] 102 % of control

ClCCCOC1CCCCO1 (stereo unspecified)
inactive: [1] 89 % of control | [6] 107 % of control | [2] 95 % of control | [7] 96 % of control | [8] 96 % of control

Cc1ccc([N+](=O)[O-])cc1S(=O)(=O)O
inactive: dose: 100.0 mg/kg/injection, schedule: Q01DX009 (ip), vehicle: saline 95 % of control | dose: 100.0 mg/kg/injection, schedule: Q04DX003 (ip), vehicle: saline 102 % of control | dose: 200.0 mg/kg/injection, schedule: Q01DX009 (ip), vehicle: saline 102 % of control | dose: 200.0 mg/kg/injection, schedule: Q04DX003 (ip), vehicle: saline 102 % of control | dose: 400.0 mg/kg/injection, schedule: Q01DX009 (ip), vehicle: saline 98 % of control | dose: 400.0 mg/kg/injection, schedule: Q04DX003 (ip), vehicle: saline 96 % of control

Cn1nnc(CCO)n1
inactive: [3] 95 % of control | [4] 95 % of control | [5] 100 % of control

Cc1cc(Cl)ccc1O/C(=C/C(=O)O)C(=O)O
inactive: dose: 100.0 mg/kg/injection, schedule: Q04DX002 (ip), vehicle: saline with Tween-80 107 % of control | dose: 200.0 mg/kg/injection, schedule: Q04DX002 (ip), vehicle: saline with Tween-80 107 % of control | dose: 400.0 mg/kg/injection, schedule: Q04DX002 (ip), vehicle: saline with Tween-80 100 % of control

Cc1ccccc1OCC(Cl)CN(C)C (stereo unspecified)
inactive: [3] 100 % of control | [4] 102 % of control

O=C(/C=C/c1ccccc1Cl)c1ccccc1
inactive: [9] 99 % of control | [10] 92 % of control | dose: 200.0 mg/kg/injection, schedule: Q01DX009 (ip), vehicle: Klucel (hydroxypropylcellulose) (HPC) 96 % of control

CCCC[P+](CCCC)(CCCC)CC(=O)OCC
inactive: dose: 15.0 mg/kg/injection, schedule: Q01DX001 (ip), vehicle: carboxymethylcellulose (CMC) 86 % of control | dose: 60.0 mg/kg/injection, schedule: Q01DX001 (ip), vehicle: carboxymethylcellulose (CMC) 87 % of control

CCCCCCCCCC(=O)N/N=C/c1cccc([N+](=O)[O-])c1
inactive: [11] 97 % of control | [12] 91 % of control | [13] 100 % of control

CN/N=C/c1cc(=O)[nH]c(=O)[nH]1
inactive: [14] 101 % of control | [3] 104 % of control | [4] 95 % of control

CC(C)(C)[CH2][Sn]([Cl])([CH2]C(C)(C)C)[CH2]C(C)(C)C
inactive: dose: 12.5 mg/kg/injection, schedule: Q04DX002 (ip), vehicle: saline with Tween-80 92 % of control

[Br][Sb]([Br])([c]1ccccc1)([c]1ccccc1)[c]1ccccc1
inactive: [9] 91 % of control | [10] 97 % of control | dose: 100.0 mg/kg/injection, schedule: Q04DX002 (ip), vehicle: Klucel (hydroxypropylcellulose) (HPC) 90 % of control | dose: 200.0 mg/kg/injection, schedule: Q04DX002 (ip), vehicle: Klucel (hydroxypropylcellulose) (HPC) 87 % of control

CN(C)CCCN1CCCCC1
inactive: [14] 106 % of control | [3] 115 % of control | [4] 110 % of control | [5] 104 % of control

O=[N+]([O-])c1ccc2[nH]c3c(c2c1)CSCC3
inactive: [11] 91 % of control | [6] 100 % of control | [12] 88 % of control | [7] 100 % of control | [13] 94 % of control | [8] 95 % of control

CCCCCCN(CCCCCC)CC(=O)NCCCN1CCN(CCCNC(=O)CN(CCCCCC)CCCCCC)CC1
inactive: dose: 12.5 mg/kg/injection, schedule: Q01DX001 (ip), vehicle: carboxymethylcellulose (CMC) 105 % of control | dose: 22.0 mg/kg/injection, schedule: Q01DX001 (ip), vehicle: carboxymethylcellulose (CMC) 98 % of control and 104 % of control | dose: 25.0 mg/kg/injection, schedule: Q01DX001 (ip), vehicle: carboxymethylcellulose (CMC) 100 % of control | dose: 33.0 mg/kg/injection, schedule: Q01DX001 (ip), vehicle: carboxymethylcellulose (CMC) 95 % of control and 100 % of control | [15] 98 % of control and 101 % of control

CCN1c2ccccc2S(=O)c2cc([N+](=O)[O-])ccc21 (stereo unspecified)
inactive: [15] 93 % of control | dose: 100.0 mg/kg/injection, schedule: Q01DX001 (ip), vehicle: carboxymethylcellulose (CMC) 87 % of control | dose: 200.0 mg/kg/injection, schedule: Q01DX001 (ip), vehicle: carboxymethylcellulose (CMC) 96 % of control | dose: 400.0 mg/kg/injection, schedule: Q01DX001 (ip), vehicle: carboxymethylcellulose (CMC) 98 % of control

CCC(=O)Nc1ccc(OS(=O)(=O)N(C)C)cc1
inactive: dose: 100.0 mg/kg/injection, schedule: Q01DX001 (ip), vehicle: saline with Tween-80 100 % of control | dose: 200.0 mg/kg/injection, schedule: Q01DX001 (ip), vehicle: saline with Tween-80 95 % of control | dose: 400.0 mg/kg/injection, schedule: Q01DX001 (ip), vehicle: saline with Tween-80 100 % of control

CCOC(=O)CNC(=O)N(CCCl)N=O
inactive: dose: 150.0 mg/kg/injection, schedule: Q01DX Z (ip), vehicle: carboxymethylcellulose (CMC) 102 % of control | dose: 250.0 mg/kg/injection, schedule: Q01DX Z (ip), vehicle: carboxymethylcellulose (CMC) 112 % of control
